# According to patent US12343326B2, “Psychoactive medicines and their use for treating psychiatric and neurological conditions and disorders” (Transcend Therapeutics, Inc., priority 2021, dated 2025):
# Read-outs that look alike come from different tables or passages of the source.
# Tests used:
# Test in all cases: β-arrestin based GPCR screen (PathHunter / GPCRmax), agonist mode
# Format in all cases: cell-based
# Design in all cases: host or cells: PathHunter cell lines
# 168 GPCRs [1] = target: 168 GPCRs (Homo sapiens, UniProt P30988); conditions: Agonist
# Protocol: (§1) For agonist determination, cells were incubated with sample to induce response. […] Vehicle concentration was 1%.
# 168 GPCRs [2] = target: 168 GPCRs (Homo sapiens, UniProt O14842)
# Protocol: as §1
# 168 GPCRs [3] = target: 168 GPCRs (Homo sapiens, UniProt P25103)
# Protocol: as §1
# 168 GPCRs [4] = target: 168 GPCRs (Homo sapiens, UniProt Q01726); conditions: MC1R
# Protocol: as §1
# 168 GPCRs [5] = target: 168 GPCRs (Homo sapiens, UniProt P25021)
# Protocol: as §1
# 168 GPCRs [6] = target: 168 GPCRs (Homo sapiens, UniProt P47871); conditions: GCGR
# Protocol: as §1
# 168 GPCRs [7] = target: 168 GPCRs (Homo sapiens, UniProt P32245); conditions: MC4R
# Protocol: as §1
# 168 GPCRs [8] = target: 168 GPCRs (Homo sapiens, UniProt P32246); conditions: CCR1, Agonist
# Protocol: as §1
# 168 GPCRs [9] = target: 168 GPCRs (Homo sapiens, UniProt P49238)
# Protocol: as §1
# 168 GPCRs [10] = target: 168 GPCRs (Homo sapiens, UniProt Q8TCW9)
# Protocol: as §1
# 168 GPCRs [11] = target: 168 GPCRs (Homo sapiens, UniProt P35368); conditions: ADRA1B, Agonist
# Protocol: as §1
# 168 GPCRs [12] = target: 168 GPCRs (Homo sapiens, UniProt P49146); conditions: NPY2R
# Protocol: as §1
# 168 GPCRs [13] = target: 168 GPCRs (Homo sapiens, UniProt P32238); conditions: CCKAR, Agonist
# Protocol: as §1
# 168 GPCRs [14] = target: 168 GPCRs (Homo sapiens, UniProt P41231)
# Protocol: as §1
# 168 GPCRs [15] = target: 168 GPCRs (Homo sapiens, UniProt Q99788); conditions: CMKLR1, Agonist
# Protocol: as §1
# 168 GPCRs [16] = target: 168 GPCRs (Homo sapiens, UniProt P41968); conditions: MC3R
# Protocol: as §1
# 168 GPCRs [17] = target: 168 GPCRs (Homo sapiens, UniProt P21731); conditions: TBXA2R
# Protocol: as §1
# 168 GPCRs [18] = target: 168 GPCRs (Homo sapiens, UniProt P47211)
# Protocol: as §1
# 168 GPCRs [19] = target: 168 GPCRs (Homo sapiens, UniProt P47872); conditions: SCTR
# Protocol: as §1
# 168 GPCRs [20] = target: 168 GPCRs (Homo sapiens, UniProt P30874)
# Protocol: as §1
# [21] = CALCR-RAMP2, read-out: % Activity
# Chain of 168 GPCRs (Homo sapiens, UniProt P30988) (P30988 25-474): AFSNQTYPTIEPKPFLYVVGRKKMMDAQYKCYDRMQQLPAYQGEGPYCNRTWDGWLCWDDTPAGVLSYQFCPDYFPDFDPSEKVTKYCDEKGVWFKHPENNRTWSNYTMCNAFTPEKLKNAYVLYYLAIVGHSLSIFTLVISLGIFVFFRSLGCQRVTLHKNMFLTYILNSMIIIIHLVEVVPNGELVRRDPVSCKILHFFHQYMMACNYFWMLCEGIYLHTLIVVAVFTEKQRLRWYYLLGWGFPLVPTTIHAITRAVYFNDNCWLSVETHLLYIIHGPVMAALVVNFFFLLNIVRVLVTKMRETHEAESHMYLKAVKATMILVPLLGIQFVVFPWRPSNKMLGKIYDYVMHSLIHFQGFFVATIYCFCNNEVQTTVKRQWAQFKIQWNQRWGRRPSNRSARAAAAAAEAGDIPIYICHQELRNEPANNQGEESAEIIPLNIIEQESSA
# Chain of 168 GPCRs (Homo sapiens, UniProt P41968) (P41968 whole entry): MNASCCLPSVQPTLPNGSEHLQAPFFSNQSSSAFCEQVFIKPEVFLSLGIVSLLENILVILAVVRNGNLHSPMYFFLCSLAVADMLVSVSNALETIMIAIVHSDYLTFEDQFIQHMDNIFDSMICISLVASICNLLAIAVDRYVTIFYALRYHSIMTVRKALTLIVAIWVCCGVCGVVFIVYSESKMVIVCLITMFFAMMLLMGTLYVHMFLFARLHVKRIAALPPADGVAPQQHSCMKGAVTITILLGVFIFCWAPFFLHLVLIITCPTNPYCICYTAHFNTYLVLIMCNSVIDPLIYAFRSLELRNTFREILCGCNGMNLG
# Chain of 168 GPCRs (Homo sapiens, UniProt P41231) (P41231 whole entry): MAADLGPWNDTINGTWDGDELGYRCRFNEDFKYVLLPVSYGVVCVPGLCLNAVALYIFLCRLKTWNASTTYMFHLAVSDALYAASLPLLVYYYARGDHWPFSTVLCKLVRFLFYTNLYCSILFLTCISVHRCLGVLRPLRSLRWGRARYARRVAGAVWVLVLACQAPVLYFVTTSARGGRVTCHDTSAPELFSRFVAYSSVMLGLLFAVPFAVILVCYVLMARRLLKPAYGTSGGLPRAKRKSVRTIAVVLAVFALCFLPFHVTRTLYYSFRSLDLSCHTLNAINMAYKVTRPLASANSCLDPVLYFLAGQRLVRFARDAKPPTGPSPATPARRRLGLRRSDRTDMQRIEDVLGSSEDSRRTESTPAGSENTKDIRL
# Chain of 168 GPCRs (Homo sapiens, UniProt Q01726) (Q01726 whole entry): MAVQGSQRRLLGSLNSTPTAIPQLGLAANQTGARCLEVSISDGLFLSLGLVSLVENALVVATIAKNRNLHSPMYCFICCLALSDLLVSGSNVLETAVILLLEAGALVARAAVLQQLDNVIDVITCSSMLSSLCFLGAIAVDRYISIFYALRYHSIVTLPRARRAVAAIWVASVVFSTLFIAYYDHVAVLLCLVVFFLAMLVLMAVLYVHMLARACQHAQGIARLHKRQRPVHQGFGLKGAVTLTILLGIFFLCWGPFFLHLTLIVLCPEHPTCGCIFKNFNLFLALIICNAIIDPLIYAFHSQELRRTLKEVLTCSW
# Chain of 168 GPCRs (Homo sapiens, UniProt P30874) (P30874 whole entry): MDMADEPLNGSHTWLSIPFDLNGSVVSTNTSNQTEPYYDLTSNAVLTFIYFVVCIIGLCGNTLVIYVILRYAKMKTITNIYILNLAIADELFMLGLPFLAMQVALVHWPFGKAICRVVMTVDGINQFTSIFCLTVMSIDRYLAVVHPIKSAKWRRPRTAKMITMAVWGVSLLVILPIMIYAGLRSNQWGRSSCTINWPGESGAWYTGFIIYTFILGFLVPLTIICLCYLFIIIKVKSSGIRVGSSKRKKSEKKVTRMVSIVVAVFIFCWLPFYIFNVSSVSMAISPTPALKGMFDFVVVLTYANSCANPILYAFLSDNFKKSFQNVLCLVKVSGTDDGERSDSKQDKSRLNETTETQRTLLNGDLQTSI
# Chain of 168 GPCRs (Homo sapiens, UniProt P32238) (P32238 whole entry): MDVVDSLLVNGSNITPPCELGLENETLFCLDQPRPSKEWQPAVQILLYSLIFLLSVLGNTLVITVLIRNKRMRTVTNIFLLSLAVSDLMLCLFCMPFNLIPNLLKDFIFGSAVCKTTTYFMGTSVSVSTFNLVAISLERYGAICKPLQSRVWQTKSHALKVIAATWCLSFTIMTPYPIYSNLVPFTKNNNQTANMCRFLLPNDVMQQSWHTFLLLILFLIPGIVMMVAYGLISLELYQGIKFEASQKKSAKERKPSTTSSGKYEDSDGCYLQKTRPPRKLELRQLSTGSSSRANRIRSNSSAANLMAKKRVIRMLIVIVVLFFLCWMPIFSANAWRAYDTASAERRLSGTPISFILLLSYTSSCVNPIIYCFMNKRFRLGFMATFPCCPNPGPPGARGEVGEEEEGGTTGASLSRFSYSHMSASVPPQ
# Chain of 168 GPCRs (Homo sapiens, UniProt P49146) (P49146 whole entry): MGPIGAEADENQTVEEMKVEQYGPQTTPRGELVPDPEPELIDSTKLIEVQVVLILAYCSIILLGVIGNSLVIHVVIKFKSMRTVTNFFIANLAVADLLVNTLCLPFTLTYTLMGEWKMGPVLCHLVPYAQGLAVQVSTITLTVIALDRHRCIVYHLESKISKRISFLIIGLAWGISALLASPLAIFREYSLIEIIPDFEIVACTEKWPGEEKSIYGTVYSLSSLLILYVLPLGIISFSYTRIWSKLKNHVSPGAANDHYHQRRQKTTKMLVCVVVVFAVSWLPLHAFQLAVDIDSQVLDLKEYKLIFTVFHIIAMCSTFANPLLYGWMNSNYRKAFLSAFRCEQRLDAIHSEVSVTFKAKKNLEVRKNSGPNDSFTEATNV
# Chain of 168 GPCRs (Homo sapiens, UniProt P25103) (P25103 whole entry): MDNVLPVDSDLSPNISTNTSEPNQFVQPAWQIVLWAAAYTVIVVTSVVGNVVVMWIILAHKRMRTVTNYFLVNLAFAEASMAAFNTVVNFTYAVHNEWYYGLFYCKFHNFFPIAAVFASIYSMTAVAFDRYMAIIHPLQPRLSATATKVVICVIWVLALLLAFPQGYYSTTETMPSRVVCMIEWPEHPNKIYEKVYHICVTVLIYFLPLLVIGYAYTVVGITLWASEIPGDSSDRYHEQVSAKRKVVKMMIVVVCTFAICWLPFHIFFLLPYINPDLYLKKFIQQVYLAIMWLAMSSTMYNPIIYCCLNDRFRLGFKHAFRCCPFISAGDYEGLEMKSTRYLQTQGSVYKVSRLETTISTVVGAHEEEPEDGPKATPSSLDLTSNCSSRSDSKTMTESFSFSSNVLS
# Chain of 168 GPCRs (Homo sapiens, UniProt P47211) (P47211 whole entry): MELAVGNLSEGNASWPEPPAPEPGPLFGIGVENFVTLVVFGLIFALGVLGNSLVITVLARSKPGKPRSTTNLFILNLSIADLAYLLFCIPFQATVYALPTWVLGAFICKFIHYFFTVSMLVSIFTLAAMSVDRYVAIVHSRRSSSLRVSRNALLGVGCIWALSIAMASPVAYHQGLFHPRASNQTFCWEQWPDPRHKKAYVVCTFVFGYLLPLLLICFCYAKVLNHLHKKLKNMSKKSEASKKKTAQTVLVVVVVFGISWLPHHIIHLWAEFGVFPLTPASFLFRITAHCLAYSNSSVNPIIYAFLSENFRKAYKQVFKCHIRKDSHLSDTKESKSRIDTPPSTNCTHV
# Chain of 168 GPCRs (Homo sapiens, UniProt P25021) (P25021 whole entry): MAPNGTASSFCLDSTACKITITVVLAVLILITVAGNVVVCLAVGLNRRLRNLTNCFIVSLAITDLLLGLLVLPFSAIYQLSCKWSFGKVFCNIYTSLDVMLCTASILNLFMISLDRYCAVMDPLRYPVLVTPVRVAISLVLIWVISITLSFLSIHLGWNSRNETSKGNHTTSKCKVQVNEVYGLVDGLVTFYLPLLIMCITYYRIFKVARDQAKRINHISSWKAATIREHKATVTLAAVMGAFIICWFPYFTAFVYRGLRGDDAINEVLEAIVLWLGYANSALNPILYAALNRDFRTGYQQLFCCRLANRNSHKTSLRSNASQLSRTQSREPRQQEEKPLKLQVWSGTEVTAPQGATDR
# Chain of 168 GPCRs (Homo sapiens, UniProt P49238) (P49238 whole entry): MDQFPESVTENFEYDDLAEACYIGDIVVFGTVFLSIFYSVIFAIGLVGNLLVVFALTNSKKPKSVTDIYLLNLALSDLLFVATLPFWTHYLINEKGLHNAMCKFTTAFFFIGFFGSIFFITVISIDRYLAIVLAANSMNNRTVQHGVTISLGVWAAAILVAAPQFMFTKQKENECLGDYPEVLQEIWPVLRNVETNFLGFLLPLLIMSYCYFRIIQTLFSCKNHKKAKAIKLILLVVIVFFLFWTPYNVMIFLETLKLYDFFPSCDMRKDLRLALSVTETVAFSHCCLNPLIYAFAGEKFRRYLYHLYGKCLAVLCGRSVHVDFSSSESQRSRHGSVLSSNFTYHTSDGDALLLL
# Chain of 168 GPCRs (Homo sapiens, UniProt P47871) (P47871 26-477): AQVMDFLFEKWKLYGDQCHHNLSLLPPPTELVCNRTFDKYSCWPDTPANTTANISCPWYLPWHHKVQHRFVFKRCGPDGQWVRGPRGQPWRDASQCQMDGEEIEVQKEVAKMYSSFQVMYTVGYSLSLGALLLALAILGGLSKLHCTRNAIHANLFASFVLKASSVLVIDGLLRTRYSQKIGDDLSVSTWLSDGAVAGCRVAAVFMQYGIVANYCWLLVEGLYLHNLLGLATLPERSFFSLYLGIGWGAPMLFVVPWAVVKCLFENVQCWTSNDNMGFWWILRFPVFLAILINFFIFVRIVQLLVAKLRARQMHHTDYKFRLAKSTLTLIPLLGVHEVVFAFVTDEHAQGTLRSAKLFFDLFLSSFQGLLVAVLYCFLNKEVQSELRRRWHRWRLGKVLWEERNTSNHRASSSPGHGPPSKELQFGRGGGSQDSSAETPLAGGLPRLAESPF
# Chain of 168 GPCRs (Homo sapiens, UniProt P21731) (P21731 whole entry): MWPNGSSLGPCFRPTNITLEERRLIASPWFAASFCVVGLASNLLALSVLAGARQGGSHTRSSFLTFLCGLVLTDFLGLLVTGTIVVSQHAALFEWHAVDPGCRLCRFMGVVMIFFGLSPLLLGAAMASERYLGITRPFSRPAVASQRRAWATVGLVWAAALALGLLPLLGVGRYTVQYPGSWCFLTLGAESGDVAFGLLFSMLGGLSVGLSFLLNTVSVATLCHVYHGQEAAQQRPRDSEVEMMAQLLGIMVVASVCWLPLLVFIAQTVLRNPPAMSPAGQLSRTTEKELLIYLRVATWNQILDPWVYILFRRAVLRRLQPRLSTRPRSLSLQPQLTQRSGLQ
smiles,measurement,setting,value
"CNC(C)C(=O)c1ccc2c(c1)OCO2 (centres unmarked) [methylone, 3,4-methylenedioxy-N-methylcathinone]",activity at 1 µM,168 GPCRs [1]; [21],0.9%
same,activity at 10 µM,168 GPCRs [1]; [21],1.6%
same,activity at 1 µM,168 GPCRs [1]; CALCR-RAMP3,7.9%
same,activity at 10 µM,168 GPCRs [1]; CALCR-RAMP3,7.1%
same,activity at 1 µM,"168 GPCRs [1]; CALCR, read-out: % Activity",-0.3%
same,activity at 10 µM,"168 GPCRs [1]; CALCR, read-out: % Activity",0.2%
same,activity at 10 µM,"168 GPCRs [2]; FFAR1, Agonist mode, 10 uM",4.5%
same,activity at 1 µM,"168 GPCRs [2]; FFAR1, Agonist, 1 uM",1.7%
same,activity at 10 µM,"168 GPCRs [3]; TACR1, Agonist mode, 10 uM",-4.4%
same,activity at 1 µM,"168 GPCRs [3]; TACR1, Agonist, 1 uM",-3.9%
same,activity at 10 µM,"168 GPCRs [4]; Agonist mode, 10 uM",-4.4%
same,activity at 1 µM,"168 GPCRs [4]; Agonist, 1 uM",-2.6%
same,activity at 10 µM,"168 GPCRs [5]; HRH2, Agonist mode, 10 uM",2.8%
same,activity at 1 µM,"168 GPCRs [5]; HRH2, Agonist, 1 uM",-2.5%
same,activity at 10 µM,"168 GPCRs [6]; Agonist mode, 10 uM",-3%
same,activity at 1 µM,"168 GPCRs [6]; Agonist, 1 uM",-2.3%
same,activity at 10 µM,"168 GPCRs [7]; Agonist mode, 10 uM",-1.1%
same,activity at 1 µM,"168 GPCRs [7]; Agonist, 1 uM",-1.4%
same,activity at 1 µM,168 GPCRs [8]; 1 uM,-2.6%
same,activity at 10 µM,168 GPCRs [8]; 10 uM,3.6%
same,activity at 10 µM,"168 GPCRs [9]; CX3CR1, Agonist mode, 10 uM",-0.4%
same,activity at 1 µM,"168 GPCRs [9]; CX3CR1, Agonist, 1 uM",0%
same,activity at 10 µM,"168 GPCRs [10]; PROKR1, Agonist mode, 10 uM",-2.8%
same,activity at 1 µM,"168 GPCRs [10]; PROKR1, Agonist, 1 uM",-1.3%
same,activity at 1 µM,168 GPCRs [11]; 1 uM,-3.3%
same,activity at 10 µM,168 GPCRs [11]; 10 uM,-2.9%
same,activity at 10 µM,"168 GPCRs [12]; Agonist mode, 10 uM",0.2%
same,activity at 1 µM,"168 GPCRs [12]; Agonist, 1 uM",-0.1%
same,activity at 1 µM,168 GPCRs [13]; 1 uM,0.1%
same,activity at 10 µM,168 GPCRs [13]; 10 uM,0.3%
same,activity at 10 µM,"168 GPCRs [14]; P2RY2, Agonist mode, 10 uM",-2.7%
same,activity at 1 µM,"168 GPCRs [14]; P2RY2, Agonist, 1 uM",-2.1%
same,activity at 1 µM,168 GPCRs [15]; 1 uM,-0.2%
same,activity at 10 µM,168 GPCRs [15]; 10 uM,-0.3%
same,activity at 10 µM,"168 GPCRs [16]; Agonist mode, 10 uM",-1.8%
same,activity at 1 µM,"168 GPCRs [16]; Agonist, 1 uM",-3.2%
same,activity at 10 µM,"168 GPCRs [17]; Agonist mode, 10 uM",-2.95%
same,activity at 1 µM,"168 GPCRs [17]; Agonist, 1 uM",-1.1%
same,activity at 10 µM,"168 GPCRs [18]; GALR1, Agonist mode, 10 uM",0.6%
same,activity at 1 µM,"168 GPCRs [18]; GALR1, Agonist, 1 uM",0.8%
same,activity at 10 µM,"168 GPCRs [19]; Agonist mode, 10 uM",-1.4%
same,activity at 1 µM,"168 GPCRs [19]; Agonist, 1 uM",-2.6%
same,activity at 10 µM,"168 GPCRs [20]; SSTR2, Agonist mode, 10 uM",0.7%
same,activity at 1 µM,"168 GPCRs [20]; SSTR2, Agonist, 1 uM",0%
